We go through 1 compound from patent US8778920B2, “3-cyano-quinoline derivatives with antiproliferative activity” (Janssen Pharmaceutica NV, priority 2004, dated 2014).

This assay relates to ovarian carcinoma cell line (SKOV3). Briefly: Serum starved, EGF stimulated proliferation assay on ovarian carcinoma SKOV3 cells (MTT). The format is cell-based. The following applies: Homo sapiens, SK-OV-3, serum free, 72 hours EGF 100 ng/ml, b231 calls the values pIC50, read-out: SKOV3 cell (C3): IC50 (converted). How it is done:
The ovarian carcinoma cell line (SKOV3) was used in an epidermal growth factor stimulated cell proliferation assay, to assess the inhibitory effect of the compounds on EGF in whole cells. In a first step the SKOV3 cells were incubated for 24 hours in the presence of 10% FCS serum. In the second step the cells were incubated with the compounds to be tested in a serum free condition (37° C. and 5% (v/v) CO2) and subsequently stimulated for 72 hours with EGF at a final concentration of 100 ng/ml. The effect of the compounds on the EGF stimulation was finally assessed in a standard MTT cell viability assay.

Structures can show the parent of a compound that is named as a salt.

The IC50 is the concentration that gives 50% inhibition. Turning to `COc1cc2ncc(C#N)c3c2cc1OCCCCCNCc1ccc(Br)cc1N3` [Compound 2, 4,6-ethanediylidenepyrido[4,3-b][6,1,12]benzoxadiazacyclopentadecine-1-carbonitrile, 17-bromo-8,9,10,11,12,13,14,19-octahydro-20-methoxy-, monohydrochloride], the IC50 is 0.158 µM.
